Experimental data taken from article PMC7570694, “Design, Synthesis, and Structure–Activity Relationships of Thiazole Analogs as Anticholinesterase Agents for Alzheimer’s Disease” (Molecules, 2020).

Legend:
AChE [1] = target: T1, AChE (Electrophorus electricus, UniProt O42275); assay: AChE inhibition, modified Ellman spectrophotometric method; assay type: biochemical; conditions: for inhibition at 1000 µM: read-out: AChE % Inhibition 10^−3 M; for inhibition at 100 µM: read-out: AChE % Inhibition 10^−4 M; for inhibition at 10 µM: read-out: AChE % Inhibition 10^-5 M; for inhibition at 1 µM: read-out: AChE % Inhibition 10^-6 M; for inhibition at 0.1 µM: read-out: AChE % Inhibition 10^-7 M; for inhibition at 0.01 µM: read-out: AChE % Inhibition 10^-8 M; for inhibition at 0.001 µM: read-out: AChE % Inhibition 10^-9 M
Protocol: (§1) The reagents and materials used in the enzyme inhibition assay were supplied commercially from Sigma-Aldrich (St. Louis, MO, USA) and Fluka (Steinheim, Germany). The cholinesterase enzyme inhibition procedure was applied as previously reported in our research papers.
(§2) Moreover, the IC50 values were calculated with the help of GraphPad ‘PRISM’ software (version 5.0) by using a dose–response curve achieved by plotting the percentage inhibition versus the log concentration.
(§3) All of the attained 3-((2-(4-(4-(trifluoromethyl)phenyl)thiazol-2-yl)hydrazineylidene)methyl)-substituedphenyl derivatives were investigated with regard to their ability to inhibit the activity of cholinesterase enzymes using the in vitro modified Ellman’s spectrophotometric method previously described.
(§4) Therefore, the IC50 values of the selected compounds and reference agents were calculated.

BChE = BChE (Equus caballus, UniProt P81908); assay: biochemical; conditions: mean ± SD; for inhibition at 1000 µM: read-out: BChE % Inhibition 10^−3 M, compound at 10^−3 M; for inhibition at 100 µM: read-out: BChE % Inhibition 10^−4 M, compound at 10^−4 M
Protocol: as §1, §2, §3, §4

AChE [2] = target: T1, AChE; assay: Kinetic studies of AChE inhibition (Lineweaver–Burk plots, substrate ATC); assay type: biochemical; conditions: Lineweaver–Burk plot; IC50/2, IC50, 2xIC50; ATC 600–18.75 µM
Protocol: For this purpose, this compound was prepared at different concentrations (IC50, 2xIC50 and IC50/2). […] The Ki values of the compound were easily calculated from the second plot with a common intercept on the x-axis (corresponding to −Ki).
Enzyme kinetics studies were conducted to determine the mechanism of inhibition of AChE using a procedure similar to that of the inhibition assay for cholinesterase enzymes. […] Linear Lineweaver–Burk graphs were used to estimate the type of inhibition of this compound.
According to the Lineweaver–Burk plots, the type of inhibition consists of two general classes: reversible or irreversible.

Chain of BChE (P81908 whole entry): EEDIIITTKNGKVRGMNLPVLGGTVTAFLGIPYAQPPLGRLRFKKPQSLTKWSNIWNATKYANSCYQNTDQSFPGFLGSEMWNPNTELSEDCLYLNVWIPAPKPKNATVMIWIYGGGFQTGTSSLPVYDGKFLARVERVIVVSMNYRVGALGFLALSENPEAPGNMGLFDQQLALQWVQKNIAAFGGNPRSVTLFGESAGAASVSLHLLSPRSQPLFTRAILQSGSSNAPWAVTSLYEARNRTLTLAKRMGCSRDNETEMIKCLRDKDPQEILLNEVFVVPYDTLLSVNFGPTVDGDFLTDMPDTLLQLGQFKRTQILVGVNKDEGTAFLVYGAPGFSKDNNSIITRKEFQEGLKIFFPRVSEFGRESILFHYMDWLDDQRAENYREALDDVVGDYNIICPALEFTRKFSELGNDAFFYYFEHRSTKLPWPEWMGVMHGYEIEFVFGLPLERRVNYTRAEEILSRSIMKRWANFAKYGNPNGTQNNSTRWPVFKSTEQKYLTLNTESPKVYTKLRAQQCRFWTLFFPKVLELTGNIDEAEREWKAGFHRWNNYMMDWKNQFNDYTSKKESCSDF
T1 sequence (O42275 24-633): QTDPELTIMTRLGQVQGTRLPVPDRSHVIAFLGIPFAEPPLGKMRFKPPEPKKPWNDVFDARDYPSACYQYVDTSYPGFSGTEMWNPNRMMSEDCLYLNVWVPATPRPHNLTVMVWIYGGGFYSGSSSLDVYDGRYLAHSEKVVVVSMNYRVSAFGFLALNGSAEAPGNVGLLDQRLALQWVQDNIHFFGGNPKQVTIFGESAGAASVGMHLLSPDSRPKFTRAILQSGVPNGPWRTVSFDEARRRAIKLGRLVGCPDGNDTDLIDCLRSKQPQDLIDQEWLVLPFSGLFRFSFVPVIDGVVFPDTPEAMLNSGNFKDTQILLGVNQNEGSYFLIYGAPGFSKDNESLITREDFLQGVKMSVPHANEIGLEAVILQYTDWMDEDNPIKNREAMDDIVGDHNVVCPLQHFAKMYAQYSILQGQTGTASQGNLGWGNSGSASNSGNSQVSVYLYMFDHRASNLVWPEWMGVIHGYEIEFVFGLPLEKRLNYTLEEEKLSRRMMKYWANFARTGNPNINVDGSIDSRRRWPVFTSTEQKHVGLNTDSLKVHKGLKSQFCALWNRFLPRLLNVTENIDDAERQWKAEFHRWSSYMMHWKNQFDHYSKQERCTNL

Row | SMILES | inhibition at 1000 µM (AChE [1]) | inhibition at 100 µM (AChE [1]) | inhibition at 1000 µM (BChE) | inhibition at 100 µM (BChE) | AChE inhibition profile in words (AChE [1]) | inhibition at 10 µM (AChE [1]) | inhibition at 1 µM (AChE [1]) | inhibition at 0.1 µM (AChE [1]) | inhibition at 0.01 µM (AChE [1]) | inhibition at 0.001 µM (AChE [1]) | type of inhibition of AChE (AChE [2])
1 | COc1cc(C=NNc2nc(-c3ccc(C(F)(F)F)cc3)cs2)cc(OC)c1O [2l, 2,6-Dimethoxy-4-[(2-{4-[4-(trifluoromethyl)phenyl]thiazol-2-yl}hydrazineylidene)methyl]phenol] | 62.8 ± 1.28% | 35.4 ± 0.895% | 38.7 ± 0.815% | 23.2 ± 0.759% |  |  |  |  |  |  | 
2 | COc1ccccc1C=NNc1nc(-c2ccc(C(F)(F)F)cc2)cs1 [2d, 2-[2-(2-Methoxybenzylidene)hydrazineyl]-4-[4-(trifluoromethyl)phenyl]thiazole] | 89.5 ± 2.04% | 82.4 ± 1.7% | > 50% | 43.8 ± 0.895% | moderate | 78.1% | 67.3% | 55.9% | 38.2% | 29.8% | 
3 | COc1cccc(C=NNc2nc(-c3ccc(C(F)(F)F)cc3)cs2)c1 [2e, 2-[2-(3-Methoxybenzylidene)hydrazineyl]-4-[4-(trifluoromethyl)phenyl]thiazole] | 90.6 ± 1.81% | 85.4 ± 1.73% | > 50% | 41.6 ± 0.907% |  | 81.8% | 74.8% | 62.4% | 44.3% | 21.6% | 
4 | COc1ccc(O)c(C=NNc2nc(-c3ccc(C(F)(F)F)cc3)cs2)c1 [2j, 4-Methoxy-2-[(2-{4-[4-(trifluoromethyl)phenyl]thiazol-2-yl}hydrazineylidene)methyl]phenol] | 91.3 ± 2.11% | 84.9 ± 1.37% | > 50% | 39.6 ± 0.865% | moderate | 76.8% | 62.1% | 57.4% | 40.7% | 25.6% | 
5 | COc1ccc(C=NNc2nc(-c3ccc(C(F)(F)F)cc3)cs2)cc1O [2i, 2-Methoxy-5-[(2-{4-[4-(trifluoromethyl)phenyl]thiazol-2-yl}hydrazineylidene)methyl]phenol] | 95.2 ± 1.5% | 92.1 ± 1.8% | > 50% | 41.5 ± 0.87% |  | 86.6% | 81% | 71.8% | 42.7% | 22.2% | reversible and mixed-type
6 | COc1ccc(C=NNc2nc(-c3ccc(C(F)(F)F)cc3)cs2)cc1OC [2g, 2-[2-(3,4-Dimethoxybenzylidene)hydrazineyl]-4-[4-(trifluoromethyl)phenyl]thiazole] | 93.5 ± 1.63% | 88.3 ± 1.6% | > 50% | 40.4 ± 0.845% |  | 81.5% | 76.9% | 69.2% | 43.1% | 24.9% | 
7 | Oc1ccc(C=NNc2nc(-c3ccc(C(F)(F)F)cc3)cs2)cc1 [2b, 4-[(2-{4-[4-(Trifluoromethyl)phenyl]thiazol-2-yl}hydrazineylidene)methyl]phenol] | 90.3 ± 1.45% | 82.2 ± 1.48% | > 50% | 40.5 ± 0.71% |  | 74.6% | 63.8% | 58% | 43.9% | 21.2% | 
8 | Oc1cccc(C=NNc2nc(-c3ccc(C(F)(F)F)cc3)cs2)c1 [2a, 3-[(2-{4-[4-(Trifluoromethyl)phenyl]thiazol-2-yl}hydrazineylidene)methyl]phenol] | 93.4 ± 1.65% | 90.5 ± 1.32% | > 50% | 42.5 ± 0.978% |  | 81.2% | 74.2% | 61% | 41.3% | 20.4% | 
9 | COc1cccc(C=NNc2nc(-c3ccc(C(F)(F)F)cc3)cs2)c1OC [2f, 2-[2-(2,3-Dimethoxybenzylidene)hydrazineyl]-4-[4-(trifluoromethyl)phenyl]thiazole] | 71.7 ± 1.4% | 40.5 ± 0.89% | 40.9 ± 0.895% | 31.5 ± 0.82% |  |  |  |  |  |  | 
10 | Oc1cccc(C=NNc2nc(-c3ccc(C(F)(F)F)cc3)cs2)c1O [2c, 3-[(2-{4-[4-(Trifluoromethyl)phenyl]thiazol-2-yl}hydrazineylidene)methyl]benzene-1,2-diol] | 78.2 ± 1.02% | 45.1 ± 0.971% | 43.6 ± 0.955% | 32.5 ± 0.721% |  |  |  |  |  |  | 
11 | COc1cc(C=NNc2nc(-c3ccc(C(F)(F)F)cc3)cs2)cc(OC)c1OC [2k, 4-[4-(Trifluoromethyl)phenyl]-2-[2-(3,4,5-trimethoxybenzylidene)hydrazineyl]thiazole] | 65.3 ± 1.04% | 40.8 ± 0.94% | 40.2 ± 0.902% | 25.6 ± 0.633% |  |  |  |  |  |  | 
12 | FC(F)(F)c1ccc(-c2csc(NN=Cc3ccc4c(c3)OCO4)n2)cc1 [2h, 2-[2-(Benzo[1,3]dioxol-5-ylmethylene)hydrazineyl]-4-[4-(trifluoromethyl)phenyl]thiazole] | 77.6 ± 1.76% | 41.9 ± 0.976% | 45.8 ± 0.926% | 34.3 ± 0.738% |  |  |  |  |  |  | 
